Earlier results, collected in US4803080A (BYK Gulden Lomberg Chemische Fabrik, priority 1984, dated 1989).

Cn1c(=O)c2[nH]cnc2n(C)c1=O [Theophylline, 1,3-dimethylxanthine]
Serum theophylline levels regarded as toxic range (Nolte and Neumann): more than 20 μg/ml
Absorption from the gastrointestinal tract during the night (in vivo): slowed down during the night
Therapeutic range, plasma levels (in vivo): 8-20 mg/1
